Drawing on PMC8799717, “Pharmacological targeting PIKfyve and tubulin as an effective treatment strategy for double-hit lymphoma” (Cell Death Discovery, 2022), this text covers remaining binding for one compound.

One experiment concerns the target RAF1 (Homo sapiens, UniProt P04049). Kind of experiment: KINOMEscan competition binding, single dose […]. The conditions noted are these: read-out: % of control at 1 μM.
The target in another experiment is DDR2 (Homo sapiens, UniProt Q16832). In words: KINOMEscan competition binding, single dose […]. The note with it: read-out: % of control at 1 μM.
In another experiment the target is DYRK1B (Homo sapiens, UniProt Q9Y463). Kind of experiment: biochemical. On the set-up: KINOMEscan active-site-directed competition binding panel, 468 kinases, percent of DMSO control at 1 uM. The note with it: KINOMEscan binding, percent of DMSO control; read-out: Ctrl%.
Another experiment concerns the target STK33 (Homo sapiens, UniProt Q9BYT3). In words: biochemical. On the set-up: KINOMEscan active-site-directed competition binding panel, 468 kinases, percent of DMSO control at 1 uM. The note with it: KINOMEscan binding, percent of DMSO control; read-out: Ctrl%.
The target in another experiment is LTK (Homo sapiens, UniProt P29376). Kind of experiment: biochemical. The conditions noted are these: KINOMEscan binding, percent of DMSO control; read-out: Ctrl%. On the set-up: KINOMEscan active-site-directed competition binding panel, 468 kinases, percent of DMSO control at 1 uM.
A further experiment concerns the target EPHA8 (Homo sapiens, UniProt P29322). Kind of experiment: KINOMEscan competition binding, single dose […]. The conditions noted are these: read-out: % of control at 1 μM.
In another experiment the target is DDR1 (Homo sapiens, UniProt Q08345). Kind of experiment: KINOMEscan competition binding, single dose […]. The conditions noted are these: read-out: % of control at 1 μM.
The target of a further experiment is CDK2 (Homo sapiens, UniProt P24941). In words: biochemical. On the set-up: KINOMEscan active-site-directed competition binding panel, 468 kinases, percent of DMSO control at 1 uM. The note with it: KINOMEscan binding, percent of DMSO control; read-out: Ctrl%.
For a further experiment, the target named is CAMKK2 (Homo sapiens, UniProt Q96RR4). In words: biochemical. On the set-up: KINOMEscan active-site-directed competition binding panel, 468 kinases, percent of DMSO control at 1 uM. The note with it: KINOMEscan binding, percent of DMSO control; read-out: Ctrl%.
The next experiment has as its target LCK (Homo sapiens, UniProt P06239). In words: KINOMEscan competition binding, single dose […]. The conditions noted are these: read-out: % of control at 1 μM.

Chain of LTK (P29376 whole entry): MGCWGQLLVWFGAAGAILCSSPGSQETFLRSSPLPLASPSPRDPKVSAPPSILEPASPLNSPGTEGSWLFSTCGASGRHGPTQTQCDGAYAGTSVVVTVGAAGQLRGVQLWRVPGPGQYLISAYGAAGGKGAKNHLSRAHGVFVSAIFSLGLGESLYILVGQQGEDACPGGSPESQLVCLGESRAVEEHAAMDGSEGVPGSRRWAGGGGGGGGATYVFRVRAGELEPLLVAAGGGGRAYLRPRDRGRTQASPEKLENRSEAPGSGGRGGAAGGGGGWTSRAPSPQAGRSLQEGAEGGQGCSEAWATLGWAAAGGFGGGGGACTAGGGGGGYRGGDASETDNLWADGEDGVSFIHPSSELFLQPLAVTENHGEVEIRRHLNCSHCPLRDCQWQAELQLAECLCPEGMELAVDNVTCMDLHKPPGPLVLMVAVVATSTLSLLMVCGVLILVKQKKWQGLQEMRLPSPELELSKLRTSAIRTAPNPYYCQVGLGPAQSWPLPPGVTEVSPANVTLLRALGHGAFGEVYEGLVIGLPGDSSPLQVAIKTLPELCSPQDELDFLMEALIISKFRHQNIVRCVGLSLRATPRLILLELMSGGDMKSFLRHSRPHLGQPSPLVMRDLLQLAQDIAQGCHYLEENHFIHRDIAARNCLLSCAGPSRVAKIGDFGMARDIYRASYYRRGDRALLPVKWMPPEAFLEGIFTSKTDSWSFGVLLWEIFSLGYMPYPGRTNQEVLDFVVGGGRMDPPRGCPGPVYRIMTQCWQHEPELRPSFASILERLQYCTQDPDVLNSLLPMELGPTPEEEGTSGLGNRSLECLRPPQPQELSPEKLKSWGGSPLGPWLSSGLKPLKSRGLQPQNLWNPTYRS
Chain of DYRK1B (Q9Y463 whole entry): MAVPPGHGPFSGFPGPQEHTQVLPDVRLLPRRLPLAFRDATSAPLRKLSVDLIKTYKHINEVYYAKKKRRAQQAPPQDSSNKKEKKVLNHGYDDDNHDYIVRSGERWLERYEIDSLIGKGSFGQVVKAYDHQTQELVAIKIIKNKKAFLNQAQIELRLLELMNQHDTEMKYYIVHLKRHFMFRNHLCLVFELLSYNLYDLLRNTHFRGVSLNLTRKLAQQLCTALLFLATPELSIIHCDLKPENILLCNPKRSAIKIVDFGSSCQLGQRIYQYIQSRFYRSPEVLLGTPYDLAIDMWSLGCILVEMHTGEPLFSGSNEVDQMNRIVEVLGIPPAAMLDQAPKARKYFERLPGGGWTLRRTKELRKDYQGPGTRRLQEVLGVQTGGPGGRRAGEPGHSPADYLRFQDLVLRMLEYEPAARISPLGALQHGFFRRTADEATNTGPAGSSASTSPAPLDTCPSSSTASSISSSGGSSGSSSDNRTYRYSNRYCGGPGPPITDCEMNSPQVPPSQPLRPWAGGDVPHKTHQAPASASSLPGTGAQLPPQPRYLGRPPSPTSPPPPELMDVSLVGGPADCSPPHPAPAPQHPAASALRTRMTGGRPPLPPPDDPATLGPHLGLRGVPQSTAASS
Chain of DDR2 (Q16832 22-855): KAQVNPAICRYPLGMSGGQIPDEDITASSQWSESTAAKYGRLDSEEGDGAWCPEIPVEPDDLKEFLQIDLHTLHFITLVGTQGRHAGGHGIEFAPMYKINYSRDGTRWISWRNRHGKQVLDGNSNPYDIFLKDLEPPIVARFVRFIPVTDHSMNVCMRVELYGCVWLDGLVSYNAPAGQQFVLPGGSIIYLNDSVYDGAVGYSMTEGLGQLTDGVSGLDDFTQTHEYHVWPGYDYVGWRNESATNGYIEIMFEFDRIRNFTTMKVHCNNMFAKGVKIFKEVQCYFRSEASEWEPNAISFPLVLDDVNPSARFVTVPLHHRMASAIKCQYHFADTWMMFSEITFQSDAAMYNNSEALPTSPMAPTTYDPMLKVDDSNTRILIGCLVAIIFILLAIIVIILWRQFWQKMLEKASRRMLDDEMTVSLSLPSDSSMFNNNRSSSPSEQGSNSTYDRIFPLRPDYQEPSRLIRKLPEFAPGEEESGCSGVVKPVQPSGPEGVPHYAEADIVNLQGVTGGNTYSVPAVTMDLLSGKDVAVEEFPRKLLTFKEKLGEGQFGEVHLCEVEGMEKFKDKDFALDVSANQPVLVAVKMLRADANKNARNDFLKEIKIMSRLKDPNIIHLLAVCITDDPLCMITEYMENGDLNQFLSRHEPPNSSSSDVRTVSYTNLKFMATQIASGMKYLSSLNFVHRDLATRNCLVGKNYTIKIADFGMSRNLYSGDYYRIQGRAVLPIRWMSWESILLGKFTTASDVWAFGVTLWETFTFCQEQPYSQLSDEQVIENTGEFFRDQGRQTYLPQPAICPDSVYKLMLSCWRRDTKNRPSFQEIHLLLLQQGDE
Chain of EPHA8 (P29322 28-1005): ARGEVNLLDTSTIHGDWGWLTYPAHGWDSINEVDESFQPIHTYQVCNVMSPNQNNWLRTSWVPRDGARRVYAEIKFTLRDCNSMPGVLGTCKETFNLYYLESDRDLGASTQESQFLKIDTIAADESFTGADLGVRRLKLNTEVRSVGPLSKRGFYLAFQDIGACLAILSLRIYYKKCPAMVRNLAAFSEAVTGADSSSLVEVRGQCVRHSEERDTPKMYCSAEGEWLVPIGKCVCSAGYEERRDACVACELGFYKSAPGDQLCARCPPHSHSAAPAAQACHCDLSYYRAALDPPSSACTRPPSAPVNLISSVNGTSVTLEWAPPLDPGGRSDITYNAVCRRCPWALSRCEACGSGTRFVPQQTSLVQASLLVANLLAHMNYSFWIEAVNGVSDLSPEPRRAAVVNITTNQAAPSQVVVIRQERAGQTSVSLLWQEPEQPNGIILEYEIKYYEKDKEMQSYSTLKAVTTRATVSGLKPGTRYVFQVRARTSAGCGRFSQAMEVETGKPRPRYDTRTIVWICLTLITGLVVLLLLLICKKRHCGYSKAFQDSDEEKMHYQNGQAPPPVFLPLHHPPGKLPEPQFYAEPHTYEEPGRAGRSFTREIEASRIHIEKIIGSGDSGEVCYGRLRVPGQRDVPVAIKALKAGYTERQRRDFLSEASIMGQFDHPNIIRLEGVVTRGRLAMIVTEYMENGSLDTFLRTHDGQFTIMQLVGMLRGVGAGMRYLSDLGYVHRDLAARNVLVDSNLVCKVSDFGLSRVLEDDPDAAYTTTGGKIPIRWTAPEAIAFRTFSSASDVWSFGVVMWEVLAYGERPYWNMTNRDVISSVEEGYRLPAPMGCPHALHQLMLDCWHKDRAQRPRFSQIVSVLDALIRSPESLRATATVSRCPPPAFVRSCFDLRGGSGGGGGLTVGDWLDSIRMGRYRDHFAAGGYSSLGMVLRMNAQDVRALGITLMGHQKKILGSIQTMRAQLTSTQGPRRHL
Chain of RAF1 (P04049 whole entry): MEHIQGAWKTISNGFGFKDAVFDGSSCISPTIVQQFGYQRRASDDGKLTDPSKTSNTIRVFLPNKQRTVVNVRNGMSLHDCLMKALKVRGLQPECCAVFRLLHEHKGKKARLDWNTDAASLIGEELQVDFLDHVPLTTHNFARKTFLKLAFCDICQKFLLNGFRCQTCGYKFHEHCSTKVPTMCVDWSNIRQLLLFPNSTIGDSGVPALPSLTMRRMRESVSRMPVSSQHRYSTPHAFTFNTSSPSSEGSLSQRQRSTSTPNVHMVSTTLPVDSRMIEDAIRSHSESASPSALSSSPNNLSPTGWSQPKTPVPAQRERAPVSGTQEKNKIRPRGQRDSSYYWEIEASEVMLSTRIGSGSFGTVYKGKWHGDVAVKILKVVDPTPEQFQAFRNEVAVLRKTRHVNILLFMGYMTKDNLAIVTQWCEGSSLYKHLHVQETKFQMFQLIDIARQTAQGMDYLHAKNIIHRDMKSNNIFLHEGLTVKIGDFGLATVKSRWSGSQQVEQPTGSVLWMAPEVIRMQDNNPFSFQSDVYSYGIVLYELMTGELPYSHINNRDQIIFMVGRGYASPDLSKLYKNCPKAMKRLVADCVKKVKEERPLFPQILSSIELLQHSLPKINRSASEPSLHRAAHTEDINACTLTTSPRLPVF
Chain of STK33 (Q9BYT3 whole entry): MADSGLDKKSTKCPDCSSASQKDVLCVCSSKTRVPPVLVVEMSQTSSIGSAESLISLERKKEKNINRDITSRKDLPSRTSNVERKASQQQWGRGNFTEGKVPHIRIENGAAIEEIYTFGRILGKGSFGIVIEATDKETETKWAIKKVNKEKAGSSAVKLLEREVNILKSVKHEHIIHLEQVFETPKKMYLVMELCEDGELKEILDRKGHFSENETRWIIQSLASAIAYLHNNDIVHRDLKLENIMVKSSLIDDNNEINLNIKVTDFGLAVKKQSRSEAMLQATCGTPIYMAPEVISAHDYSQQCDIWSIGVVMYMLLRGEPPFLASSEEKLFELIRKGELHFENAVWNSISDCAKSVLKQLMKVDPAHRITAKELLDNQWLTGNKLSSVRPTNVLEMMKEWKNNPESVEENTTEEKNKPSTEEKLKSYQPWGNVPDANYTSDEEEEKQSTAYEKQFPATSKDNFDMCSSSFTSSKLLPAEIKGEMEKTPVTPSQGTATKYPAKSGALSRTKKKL
Chain of CAMKK2 (Q96RR4 whole entry): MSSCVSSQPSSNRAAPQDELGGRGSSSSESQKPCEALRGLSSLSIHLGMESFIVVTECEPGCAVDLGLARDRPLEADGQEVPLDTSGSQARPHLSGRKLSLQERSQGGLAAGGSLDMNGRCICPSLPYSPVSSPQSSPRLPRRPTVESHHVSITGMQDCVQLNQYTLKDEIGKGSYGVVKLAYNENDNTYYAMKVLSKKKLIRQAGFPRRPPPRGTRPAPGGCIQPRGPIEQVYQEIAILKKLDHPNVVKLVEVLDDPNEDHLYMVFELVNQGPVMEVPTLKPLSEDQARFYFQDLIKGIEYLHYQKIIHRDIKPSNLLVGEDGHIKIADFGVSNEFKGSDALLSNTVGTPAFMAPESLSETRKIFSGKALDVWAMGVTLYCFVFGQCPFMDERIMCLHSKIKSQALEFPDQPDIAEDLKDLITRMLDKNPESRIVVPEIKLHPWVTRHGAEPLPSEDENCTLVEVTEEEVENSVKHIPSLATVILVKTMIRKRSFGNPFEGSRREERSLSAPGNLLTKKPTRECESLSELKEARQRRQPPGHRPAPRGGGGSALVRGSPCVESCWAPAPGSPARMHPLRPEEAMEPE

Turning to `Cc1ccc(NC(=O)c2cccc(C(F)(F)F)c2)cc1Nc1cc(-c2cccnc2)nc2[nH]ccc12` [HZX-02-059], the remaining binding at 1 µM on RAF1 worked out at 0.95%; at DDR2, 0%; at DYRK1B it was 97%; on STK33 it was 94%; on LTK, 79%; at EPHA8, 0.5%. Besides, the remaining binding at 1 µM on DDR1 amounted to 0.75%; at CDK2, 96%; on CAMKK2, 93%; at LCK, 0.9%.
